Read-outs that look alike come from different tables or passages of the source.
System: HCV proteins in Rep5.1 cells (replicon cell line)
Assay: Inhibitory activity of HCV: cell-based ELISA in replicon cell line Rep5.1 (decrease of HCV proteins)
Set-up: species or system hepatitis C virus
Conditions: Rep5.1 cells, 72 hours with drug
Experimental: In order to, screen and evaluate the anti-HCV therapeutic agents in cell level, the following experiments are carried out using a replicon cell line, Rep5.1 [Lohmann, et al., Replication of subgenomic hepatitis C virus RNAs in a hepatoma cell line. Science 285:110-113 (1999)].
Rep5.1 cells, the replicon cell line, are cultured in DMEM-10 containing 500 μg/ml of G418. The Rep5.1 cells in log phase are suspended by trypsin treatment, and 5000 cells are distributed to each well of a 96-well plate. After 4 hours when the cells are attached to the plate, the serially diluted drug is added to each well. After 48 hours, a part of the treated cells are observed by microscope, and MTT assay is carried out to evaluate the drug toxicity. The cytotoxicity is estimated in percentage based on the control containing no drug. After 72 hours, the remaining cells are fixed by methanol/acetone (50/50, v/v), and the decrease of HCV proteins is measured by using HCV antibody. The extent of decrease is estimated in percentage based on the control containing no drug, and the concentration of drug at which 50% of proteins is decreased is determined to be IC50. The compounds showing activity via this procedure are validated by Western blotting. In order to find out whether the decrease of HCV protein is related to the decrease of replicon RNA, Rep5.1 cell is treated with some selected drugs for 72 hours, RNA is purified, dot blotted, and hybridized with isotope labelled nucleic acid to determine the amounts of actin mRNA and replicon RNA, and finally the amount of RNA is compared.
Plasma samples from 300 persons positive to the hepatitis C antibody test were screened by antibody diagnosis kit produced by LG life Sciences Ltd. (LG HCD3.0 TMB) to select 40 plasma samples having high titer. Replicon cell line and Huh-7 cell line each were cultured in a 96-well cell culture plate, fixed by methanol/acetone (1:1) mixture, and blocked by 3% skimmed milk. The 40 plasma sanples selected above were 100-fold diluted and aided thereto, and the bound antibodies were probed by anti-Human goat antibody (Sigma) to which Horse Radish Peroxidase is attached. As a result, 12 plasma samples having low specificity to Huh-7 cell line, but high specificity to replicon cell line were obtained. These plasma samples were used in the following cell-based ELISA.
Rep5.1 cells were cultured in DMEM-10 containing 500 μg/ml of G418. The Rep5.1 cells in log phase were suspended by trypsin treatment, and 5000 cells were distributed to each well of a 96-well pate. After 4 hours for which the cells were attached to the plate, the serially diluted drug was added to each well. After 72 hours, the cells were fixed by methanol/acetone (50/50, v/v), and the decrease of HCV proteins was measured by using HCV antibody obtained as above. The extent of decrease was estimated in percentage based on the control containing no drug, and the concentration of drug at which 50% of proteins was decreased was determined to be IC50.

[1] = Hepatitis C virus, 72 h, concentration at which 50% of HCV proteins was decreased, Table 2, read-out: IC50
[2] = Hepatitis C virus, 72 h, decrease of HCV proteins measured by HCV antibody, Table 1, read-out: Level (IC50 values classified)

Work on `CC1=C(C(=O)OCC2CCCC2)CNC(=S)N1` [Compound 68, 6-methyl-2-thioxo-1,2,3,4-tetrahydro-pyrimidine-5-carboxylic acid cyclopentylmethyl ester] yielded an IC50 [1] of 0.7 µM and an IC50 [2] of less than 1 µM.

With `CCOc1ccc(COC(=O)C2=C(C)NC(=S)NC2)cc1` [Compound 71, 6-methyl-2-thioxo-1,2,3,4-tetrahydro-pyrimidine-5-carboxylic acid 4-ethoxy-benzyl ester] the IC50 [1] was 2.5 µM and the IC50 [2] was 1 to 10 µM.

`CC1=C(C(=O)OCCc2cn(C)c3ccccc23)CNC(=S)N1` [Compound 165, 6-methyl-2-thioxo-1,2,3,4-tetrahydro-pyrimidine-5-carboxylic acid 2-(1-methyl-1H-indol-3-yl)-ethyl ester] showed an IC50 [1] of 1.4 µM and an IC50 [2] of 1 to 10 µM.

`COc1cc(COC(=O)C2=C(C)NC(=S)NC2)ccc1OCc1ccccc1` [Compound 58, 6-methyl-2-thioxo-1,2,3,4-tetrahydro-pyrimidine-5-carboxylic acid 4-benzyloxy-3-methoxy-benzyl ester] showed an IC50 [1] of less than 0.5 µM and an IC50 [2] of less than 1 µM.

Compound `CSc1ccc(CCCOC(=O)C2=C(C)NC(=S)NC2)cc1` [Compound 105, 6-methyl-2-thioxo-1,2,3,4-tetrahydro-pyrimidine-5-carboxylic acid 3-(4-methylsulfanyl-phenyl)-propyl ester] has an IC50 [1] of less than 0.4 µM and an IC50 [2] of less than 1 µM.

For `COCC1NC(=S)NC(C)=C1C(=O)OCc1ccccc1` (stereo not shown) [Compound 109, 4-methoxymethyl-6-methyl-2-thioxo-1,2,3,4-tetrahydro-pyrimidine-5-carboxylic acid benzyl ester], the IC50 [1] was 100 µM and the IC50 [2] was greater than 20 µM.

Work on `CC1=C(C(=O)OCCc2ccccc2)CNC(=S)N1` [Compound 34, 6-methyl-2-thioxo-1,2,3,4-tetrahydro-pyrimidine-5-carboxylic acid phenethyl ester] yielded an IC50 [1] of 2 µM and an IC50 [2] of 1 to 10 µM.

`CC1=C(C(=O)OCCc2ccc(C)c(Cl)c2)C(CO)NC(=S)N1` (stereo not shown) [74″, 4-hydroxymethyl-6-methyl-2-thioxo-1,2,3,4-tetrahydro-pyrimidine-5-carboxylic acid 2-(3-chloro-4-methyl-phenyl)-ethyl ester] gave an IC50 [1] of less than 0.4 µM and an IC50 [2] of less than 1 µM.

`CC1=C(C(=O)OCCc2cccc(Cl)c2)C(COC(=O)OCc2oc(=O)oc2C)NC(=S)N1` (stereo not shown) [78″, 6-methyl-4-(5-methyl-2-oxo-[1,3]dioxol-4-ylmethoxycarbonyloxymethyl)-2-thioxo-1,2,3,4-tetrahydro-pyrimidine-5-carboxylic acid 2-(3-chloro-phenyl)-ethyl ester] was tested, and the IC50 [1] was 0.8 µM and the IC50 [2] was less than 1 µM.

`CC1=C(C(=O)OCC2CCCO2)CNC(=S)N1` (stereo not shown) [Compound 161, 6-methyl-2-thioxo-1,2,3,4-tetrahydro-pyrimidine-5-carboxylic acid tetrahydrofuran-2-ylmethyl ester] gave an IC50 [1] greater than 100 µM and an IC50 [2] greater than 20 µM.

In the case of `CC1=C(C(=O)OCCCc2ccncc2)CNC(=S)N1` [Compound 13, 6-methyl-2-thioxo-1,2,3,4-tetrahydro-pyrimidine-5-carboxylic acid 3-pyridin-4-yl-propyl ester], the IC50 [1] is reported as greater than 100 µM and the IC50 [2] is reported as greater than 20 µM.

Work on `CCOc1ccccc1CCOC(=O)C1=C(C)NC(=S)NC1CS(=O)(=O)C(C)(C)C` (stereo not shown) [30″, 6-methyl-4-(2-methyl-propane-2-sulfonylmethyl)-2-thioxo-1,2,3,4-tetrahydro-pyrimidine-5-carboxylic acid 2-(2-ethoxy-phenyl)-ethyl ester] yielded an IC50 [1] of 50 µM and an IC50 [2] greater than 20 µM.

Work on `CC1=C(C(=O)OCCC2CC2)CNC(=S)N1` [2′, 6-methyl-2-thioxo-1,2,3,4-tetrahydro-pyrimidine-5-carboxylic acid 2-cyclopropyl-ethyl ester] yielded an IC50 [1] of 2.4 µM and an IC50 [2] of 1 to 10 µM.

`CC1=C(C(=O)OCCCc2ccc(F)cc2)CNC(=S)N1` [Compound 103, 6-methyl-2-thioxo-1,2,3,4-tetrahydro-pyrimidine-5-carboxylic acid 3-(4-fluoro-phenyl)-propyl ester] showed an IC50 [1] of less than 0.4 µM and an IC50 [2] of less than 1 µM.

`CC1=C(C(=O)OCCc2cccc(C)c2)C(CO)NC(=S)N1` (stereo not shown) [64″, 4-hydroxymethyl-6-methyl-2-thioxo-1,2,3,4-tetrahydro-pyrimidine-5-carboxylic acid 2-m-tolyl-ethyl ester] showed an IC50 [1] of 5.5 µM and an IC50 [2] of 1 to 10 µM.

With `CC1=C(C(=O)OCc2ccc(SC(F)(F)F)cc2)CNC(=S)N1` [Compound 199, 6-methyl-2-thioxo-1,2,3,4-tetrahydro-pyrimidine-5-carboxylic acid 4-trifluoromethylsulfanyl-benzyl ester] the IC50 [1] was less than 0.4 µM and the IC50 [2] was less than 1 µM.

For `CC(=O)OCC1NC(=S)NC(C)=C1C(=O)OCCc1cccc(Cl)c1` (stereo not shown) [44″, 4-acetoxymethyl-6-methyl-2-thioxo-1,2,3,4-tetrahydro-pyrimidine-5-carboxylic acid 2-(3-chloro-phenyl)-ethyl ester], the IC50 [1] was 5 µM and the IC50 [2] was 1 to 10 µM.

With `CC1=C(C(=O)OCC2CC=CCC2)CNC(=S)N1` (stereo not shown) [3′, 6-methyl-2-thioxo-1,2,3,4-tetrahydro-pyrimidine-5-carboxylic acid cyclohex-3-enylmethyl ester] the IC50 [1] was 0.7 µM and the IC50 [2] was less than 1 µM.

`CC1=C(C(=O)OCc2cc(F)c(F)c(F)c2)C(CF)NC(=S)N1` (stereo not shown) [91′, 4-fluoromethyl-6-methyl-2-thioxo-1,2,3,4-tetrahydro-pyrimidine-5-carboxylic acid 3,4,5-trifluoro-benzyl ester] showed an IC50 [1] of 1.6 µM and an IC50 [2] of 1 to 10 µM.

`CC1=C(C(=O)OCCCc2cc3ccccc3s2)C(CF)NC(=S)N1` (stereo not shown) [58′, 4-fluoromethyl-6-methyl-2-thioxo-1,2,3,4-tetrahydro-pyrimidine-5-carboxylic acid 3-benzo[b]thiophen-2-yl-propyl ester] gave an IC50 [1] of 8 µM and an IC50 [2] of 1 to 10 µM.

`COc1ccccc1CCOC(=O)C1=C(C)NC(=S)NC1CF` (stereo not shown) [42′, 4-fluoromethyl-6-methyl-2-thioxo-1,2,3,4-tetrahydro-pyrimidine-5-carboxylic acid 2-(2-methoxy-phenyl)-ethyl ester] gave an IC50 [1] of 4.1 µM and an IC50 [2] of 1 to 10 µM.

`CC1=C(C(=O)OCCc2ccsc2)C(C(F)F)NC(=S)N1` (stereo not shown) [80′, 4-difluoromethyl-6-methyl-2-thioxo-1,2,3,4-tetrahydro-pyrimidine-5-carboxylic acid 2-thiophen-3-yl-ethyl ester] gave an IC50 [1] of 11 µM and an IC50 [2] of 10 to 20 µM.

In the case of `CC1=C(C(=O)OCCc2csc([N+](=O)[O-])c2)C(CF)NC(=S)N1` (stereo not shown) [28′, 4-fluoromethyl-6-methyl-2-thioxo-1,2,3,4-tetrahydro-pyrimidine-5-carboxylic acid 2-(5-nitro-thiophen-3-yl)-ethyl ester], the IC50 [1] is reported as 72 µM and the IC50 [2] is reported as greater than 20 µM.

`CC1=C(C(=O)OCCC[S+]([O-])c2nc3ccccc3o2)C(CF)NC(=S)N1` (stereo not shown) [49′, 4-fluoromethyl-6-methyl-2-thioxo-1,2,3,4-tetrahydro-pyrimidine-5-carboxylic acid 3-(benzoxazol-2-ylsulfinyl)-propyl ester] was tested, and the IC50 [1] was 8 µM and the IC50 [2] was 1 to 10 µM.

`CC1=C(C(=O)OCC#Cc2ccsc2)CNC(=S)N1` [Compound 240, 6-methyl-2-thioxo-1,2,3,4-tetrahydro-pyrimidine-5-carboxylic acid 3-thiophen-3-yl-prop-2-inyl ester] showed an IC50 (concentration at which 50% of HCV proteins was decreased, Table 2, read-out: IC50) of less than 0.4 µM.

`CC1=C(C(=O)OCc2cccc(OCc3ccccc3)c2)CNC(=S)N1` [Compound 50, 6-methyl-2-thioxo-1,2,3,4-tetrahydro-pyrimidine-5-carboxylic acid 3-benzyloxy-benzyl ester] was tested, and the IC50 [1] was less than 0.5 µM and the IC50 [2] was less than 1 µM.

With `CC1=C(C(=O)OCCc2ccsc2)[C@@H](CF)NC(=S)N1` [25′, (S)-4-fluoromethyl-6-methyl-2-thioxo-1,2,3,4-tetrahydro-pyrimidine-5-carboxylic acid 2-thiophen-3-yl-ethyl ester] the IC50 [1] was 4.9 µM and the IC50 [2] was 1 to 10 µM.

`CC1=C(C(=O)OCCS(=O)(=O)c2ccc(C)cc2)CNC(=S)N1` [Compound 201, 6-methyl-2-thioxo-1,2,3,4-tetrahydro-pyrimidine-5-carboxylic acid 2-(toluene-4-sulfonyl)-ethyl ester] gave an IC50 [1] of 13 µM and an IC50 [2] of 10 to 20 µM.

Reference: patent US20060116390A1, “Hepatitis c virus inhibitors” (priority 2003, published 2006)
